According to patent publication US6699662B1, “Inhibitors of staphylococcus SarA protein function involved in the expression of staphylococcal virulence factors and the use thereof in treating staphylococcal infections” (priority 1999, dated 2004):

Assays:
[1] = tested on: SarA-DNA complex (SarA and ds A1/A2 DNA); details: for effect of PNA added to the complexed SarA and radiolabeled ds A1/A2 DNA: PNA added to a mixture of SarA and ds A1/A2 DNA
Description: The first tests of potential inhibitors are made using EMSA. Briefly, ^32P-labeled DNA fragments that correspond to the PNA or HP molecules are used as the targets. […] The concentration of SarA required to bind 50% of the DNA fragment is determined empirically. To determine the degree of inhibition, a mixture of SarA and ^32P-labeled DNA that gives 50% free DNA and 50% bound DNA (called 100% in this assay) is titrated with the PNA molecule. The concentration of PNA that reduces the SarA-DNA complex by 50% is the IC50 value. Using this simple, but effective testing procedure, the PNA or HP design is varied with regard to the sequence targeted and the length of PNA or HP molecules.
The samples were analyzed by standard EMSA and phosphorimaging.

[2] = tested on: A1/A2 oligonucleotide (SarA binding site of the agr locus); assay: EMSA of PNA binding to radiolabeled A1/A2 oligonucleotide; design: species or system Staphylococcus aureus
Description: The present invention also is directed to a method of identifying inhibitors of SarA function involved in the expression of staphylococcal virulence genes comprising: a) contacting a candidate inhibitor with at least one SarA binding site of the agr locus in solution to allow the binding reaction to equilibrate for a sufficient period of time; and b) assessing the binding of said candidate inhibitor to said SarA binding site of the agr locus. (See FIG. 15 for an example of the results of this method.) The method further comprises the addition of SarA to the solution of step a) simultaneously with the inhibitor and the SarA binding site, and then an assessment of the binding affinity of the candidate inhibitor relative to the binding affinity of the SarA to the SarA binding site of the agr locus. Alternatively, the addition of SarA to the solution of step a) is sequentially with the inhibitor and the SarA binding site, and then the assessment of the binding affinity of said candidate inhibitor relative to the binding affinity of said SarA to the SarA binding site of the agr locus. (See FIG. 16 for an example of the results of this method showing the results with and without the addition of SarA.)
A prototype PNA inhibitor of SarA-agr binding is constructed and tested. […] The complexes were resolved by native gel electrophoresis and detected by phosphorimaging. […]

Row | Substance | competition with SarA for binding to A1/A2 DNA ([1]; 10 nM dsDNA incubated with PNA (0.750 pM, 7.5, 75, 750 nM) overnight, then 10 nM SarA added, FIG. 16) | effect of PNA added to the complexed SarA and radiolabeled ds A1/A2 DNA [1] | fraction of PNA active in the binding assay ([2]; 20 nM 32P-labeled A1/A2, FIG. 15) | binding / affinity of PNA for the A1/A2 oligonucleotide ([2]; 20 nM 32P-labeled A1/A2, varying PNA concentrations, FIG. 15)
1 | gly-TCCAATTTTTCTTAACTA-lys [18-mer] | able to outcompete SarA for binding to the DNA | the complex changed from the SarA-DNA complex to the PNA-DNA complex | – | –
2 | gly-TTTCTTAACTA-lys (N-terminal glycine and C-terminal lysine attached, backbone not given here, further chemistry not given here; listed as Staphylococcus aureus) [PNA-1] | – | did not change this complex | nearly all, if not all | very high
